What is called GI50 is the concentration giving 50% growth inhibition.

In assay [1] the test system is H1975 (non-small-cell lung cancer cells. EGFR L858K/T790M). As to the kind of experiment: Tumor cell proliferation and growth inhibition analysis (Cell Titer-Glo, 72 h), H1975. Type of assay: cell-based. To be noted: Homo sapiens, NCI-H1975; H1975 cells, 72 h exposure, Cell Titer-Glo; read-out: H1975 GI50. An excerpt: (§1) […] cell proliferation assay is described as follows.
(§2) Tumor cell proliferation and growth inhibition analysis: H1975 (non-small-cell lung cancer cells. EGFR L858K/T790M) and A431 (human epidermal cancer cells, EGFR wild type) cells were commercially available from the ATCC cell bank. […] The growth medium for A431 cells was DMEM (GIBCO, 11995-065), 10% fetal bovine serum. The influence exerted by the compounds on the proliferation activity of tumor cells was detected by Cell Titer-Glo assay. Tumor cells were exposed to the treatment conditions for 72 h, and the cell density used in each experiment for each cell line was adjusted according to the 72 h cell growth curve. 10 concentration gradients and three-fold dilutions (0.5 nM-10 μM) were set for compounds to be tested, and 3 parallel controls were used for each concentration value.
(§3) Trypsin was used for digesting cells in the logrithmic growth phase to prepare cell suspension, which was counted by a Roche counter and appropriately diluted with complete medium to a final cell concentration of 1˜2×10^3 cell/mL. 384-well plates were seeded with cells, and 22.6 μL were seeded for each well. 3 parallels were set. The plates were incubated in an incubator with 5% CO2 at 37° C. overnight. The compounds were dissolved in DMSO to prepare […] mother liquor. […] 2 μL of compound solution was added into 18 μL of culture medium, and fully mixed. Then 2 μL of mixed solution of compound and culture medium was added into 18 μL of culture medium, and fully mixed. 2.4 μL of mixtures were added into a 384-well plates. […] After cultivation for 72 h, 24 μL of Cell Titer-Glo reagent was added. The contents were mixed on an orbital shaker for 2 min to induce cell lysis. The 384-well plates were incubated at room temperature for 10 min to stabilize the […] signal value. Data was read by Infinite® M1000 PRO (TECAN), and calculated with GraphPad Prism version 5.0. GI50 value was obtained by adjustment using a non-linear regression model of dose response curves.
(In general: In ATP-based viability assays light output follows the ATP content of the culture.)

Assay [2] has as its system A431 (human epidermal cancer cells, EGFR wild type). Nature of the assay: Tumor cell proliferation and growth inhibition analysis (Cell Titer-Glo, 72 h), A431. Type of assay: cell-based. Conditions: A-431, 72 h exposure.
Excerpt: as §1, §2, §3

Consider `C=CC(=O)Nc1cc(Nc2ncnc(-c3cccc4cc[nH]c34)n2)c(OC)cc1N1CC2(CCCN2C)C1` [Example 36, N-(5-((4-(1H-indol-7-yl)-1,3,5-triazin-2-yl)amino)-4-methoxy-2-(5-methyl-2,5-diazaspiro[3.4]oct-2-yl)phenyl)acrylamide], for which the concentration for 50% growth inhibition (GI50) in assay [1] turned out to be 114 nM; in assay [2] it was 1120 nM.
In the same order, the values of `C=CC(=O)Nc1cc(Nc2ncnc(-c3cccc4ccn(C)c34)n2)c(OC)cc1N(C)CCN(C)C` [Example 37, N-(2-((2-(dimethylamino)ethyl)(methyl)amino)-4-methoxy-5-((4-(1-methyl-1H-indol-7-yl)-1,3,5-triazin-2-yl)amino)phenyl)acrylamide] are 441 nM and 1320 nM.
In the same order, the values of `C=CC(=O)Nc1cc(Nc2ncnc(-c3cn(C)c4ncccc34)n2)c(OC(F)F)cc1N(C)CCN(C)C` [Example 38, N-(4-(difluoromethoxy)-2-((2-(dimethylamino)ethyl)(methyl)amino)-5-((4-(1-methyl-1H-pyrrolo[2,3-b]pyridin-3-yl)-1,3,5-triazin-2-yl)amino)phenyl)acrylamide] are 8.3 nM and 144 nM.
In the same order, the values of `C=CC(=O)Nc1cc(Nc2ncnc(-n3cnc4ccccc43)n2)c(OC)cc1N(C)CCN(C)C` [Example 39, N-(5-((4-(1H-benzo[d]imidazol-1-yl)-1,3,5-triazin-2-yl)amino)-2-((2-(dimethylamino)ethyl)(methyl)amino)-4-methoxyphenyl)acrylamide] are 21.2 nM and 15.2 nM.
As for `C=CC(=O)Nc1cc(Nc2cc(-c3cn(C)c4ncccc34)ccn2)c(OC)cc1N(C)CCN(C)C` [Example 40, N-(2-((2-(dimethylamino)ethyl)(methyl)amino)-4-methoxy-5-((4-(1-methyl-1H-pyrrolo[2,3-b]pyridin-3-yl)pyridin-2-yl)amino)phenyl)acrylamide], the GI50 amounted to 28.9 nM in assay [1] and 198 nM in assay [2].
In the same order, the values of `C=CC(=O)Nc1cc(Nc2cc(-c3nn(C)c4ccsc34)ccn2)c(OC)cc1N(C)CCN(C)C` [Example 41, N-(2-((2-(dimethylamino)ethylmethyl)amino)-4-methoxy-5-((4-(1-methyl-1H-thieno[3,2-c]pyrazol-3-yl)pyridin-2-yl)amino)phenyl)acrylamide] are about 36.5 nM and about 800 nM.
In the same order, the values of `C=CC(=O)Nc1cc(Nc2cc(-c3nn(C)c4cccnc34)ccn2)c(OC)cc1N(C)CCN(C)C` [Example 42, N-(2-((2-(dimethylamino)ethyl)(methyl)amino)-4-methoxy-5-((4-(1-methyl-1H-pyrazolo[4,3-b]pyridin-3-yl)pyridin-2-yl)amino)phenyl)acrylamide] are 16.3 nM and 264 nM.
In the same order, the values of `C=CC(=O)Nc1cc(Nc2cc(-c3cnn4cccnc34)ccn2)c(OC)cc1N(C)CCN(C)C` [Example 43, N-(2-((2-(dimethylamino)ethyl)(methyl)amino)-4-methoxy-5-((4-(pyrazolo[1,5-a]pyrimidin-3-yl)pyridin-2-yl)amino)phenyl)acrylamide] are 19.1 nM and 267 nM.
With `C=CC(=O)Nc1cc(Nc2cc(-c3cnc4ccccn34)ccn2)c(OC)cc1N(C)CCN(C)C` [Example 44, N-(2-((2-(dimethylamino)ethyl)(methyl)amino)-5-((4-(imidazo[1,2-a]pyridin-3-yl)pyridin-2-yl)amino)-4-methoxyphenyl)acrylamide], the GI50 in assay [1] worked out at 104 nM; in assay [2] it was 638 nM.
In the same order, the values of `C=CC(=O)Nc1cc(Nc2cc(-n3nc(C)c4ccccc43)ccn2)c(OC)cc1N(C)CCN(C)C` [Example 45, N-(2-((2-(dimethylamino)ethyl)(methyl)amino)-4-methoxy-5-((4-(3-methyl-1H-indazol-1-yl)pyridin-2-yl)amino)phenyl)acrylamide] are 7.6 nM and 798 nM.

Values taken from patent publication US10377747B2, “2-arylamino pyridine, pyrimidine or triazine derivatives, preparation method and use thereof” (Wuxi Shuangliang Biotechnology Co., Ltd., priority 2015, dated 2019).
